From PMC10291704 (Biology of blood and marrow transplantation : journal of …, 2019)
Values joined by “and” are separate entries in the source; they are usually repeats but may differ in a detail not shown here. Identical values can stand only once. Like-named read-outs stand apart in the source and are kept apart here.

Experiments:
[1] = test system: human cell-line model of busulfan-resistant acute myelogenous leukemia; conditions: cited from earlier work; for inhibitory concentration: busulfan-resistant AML cell line
[2] = format: in vivo, human
[3] = between WBC of 0.3 × 10^3 /μL and 259 × 10^3 /μL; cited from earlier work
[4] = 16 patients, 40 mg/m^2/day; cited from earlier work
[5] = cited from earlier work

## Nc1nc(Cl)nc2c1ncn2[C@@H]1O[C@H](CO)[C@@H](O)[C@@H]1F [clo-fara, clofarabine]
[1]
  inhibitory concentration: 0.06 µM
[1]; from inhibitory concentrations
  difference in cytotoxic activity, clofarabine vs fludarabine: ~50 fold
[2]; bootstrap mean value
  Additive error: 0.36 ng/mL
  Proportional residual unexplained variability: 32.7%
  Volume of the peripheral compartment (Vp): 47.3 L/15kg
[2]; final model
  between-subject variability for volume of central compartment: 40%
[2]; final model parameter estimate
  Additive error: 0.36 ng/mL
  Proportional residual unexplained variability: 33% and 33.2%
  Volume of the peripheral compartment (Vp): 47 L/15kg and 47.4 L/15kg
[2]; human, in vivo
  AUC: 3300 ng·h/mL
  Inter-compartmental CL: 164 mL/min/kg
  Maturation half-time (Thalf) of age effect on CL: 0.41 years
  Typical value for clo-fara CL: 23.4 L/h/15kg
  between-subject variability for clo-fara CL: 26%
  clearance: 390 mL/min
  intercompartmental CL: 9.8 L/h/15kg
[2]; human, in vivo, 10 mg/m2
  AUC at 4 daily doses: 1200 ng·h/mL
[2]; human, in vivo, 10 mg/m2, AUC0–24, median (range)
  AUC(0-t): 300 ng·h/mL
[2]; human, in vivo, 30 mg/m2
  AUC at 4 daily doses: 3300 ng·h/mL
[2]; human, in vivo, 30 mg/m2, AUC0–24, median (range)
  AUC(0-t): 820 ng·h/mL
[2]; human, in vivo, 40 mg/m2
  AUC0–24, median (range): 1.04 (0.87 – 4.0) mg•hr/L
  AUC at 5 daily doses: 5200 ng·h/mL
[2]; human, in vivo, 40 mg/m2, AUC0–24, median (range)
  AUC(0-t): 780 ng·h/mL
[2]; human, in vivo, 40 mg/m2, AUC0–24, outlier value of one subject
  AUC(0-t): 4000 ng·h/mL
[2]; human, in vivo, 40 mg/m2, AUC0–24 of the other subjects
  AUC(0-t): ≤ 1170 ng·h/mL
[3]
  increase of predicted volume of the central compartment with WBC: 2.38 fold
[4]
  variability observed in clo-fara PK parameters (CL, AUC, volume of distribution): 2–3 fold
[5]; 24-hour urine collections in pediatric studies
  dose excreted in the urine unchanged: 49–60%
[5]
  hepatic and non-hepatic metabolic conversion: 0.2%

## Nc1nc(F)nc2c1ncn2[C@@H]1O[C@H](CO)[C@@H](O)[C@@H]1O [fludarabine]
[1]
  inhibitory concentration: 3.0 µM
